Source: PMC8175350, “Drug repurposing screens identify chemical entities for the development of COVID-19 interventions” (Nature Communications, 2021)
Read-outs that look alike come from different tables or passages of the source.

Experiments:
SARS-CoV-2 [1] = experiment: microbe, parasite or virus in culture; assay type: cell-based; conditions: for Emax: Severe acute respiratory syndrome coronavirus 2, HeLa-ACE2, 24 h, read-out: HeLa-ACE2 CoV-2 Sinf Average; for EC50: read-out: HeLa-ACE2 CoV-2 EC50 GeoMean
[2] = Uninfected HeLa-ACE2 24 h live/dead cytotoxicity counter screen; assay type: cell-based, human; conditions: human, uninfected HeLa-ACE2 cells; read-out: HeLa-ACE2 uninfected cytotoxicity CC50 GeoMean
HeLa-ACE2 cells [3] = experiment: as above; assay type: cell-based, human
SARS-CoV-2 [4] = experiment: microbe, parasite or virus in culture; assay type: cell-based; conditions: for Emax: Severe acute respiratory syndrome coronavirus 2, Calu-3, 48 h, read-out: Calu-3 CoV-2 Sinf Average; for EC50: read-out: Calu-3 CoV-2 EC50 GeoMean
SARS-CoV-2 [5] = experiment: microbe, parasite or virus in culture; assay type: cell-based; conditions: for Emax: Severe acute respiratory syndrome coronavirus 2, HeLa-ACE2, 10 h, read-out: HeLa-ACE2 TOA CoV-2 Sinf Average; for EC50: read-out: HeLa-ACE2 TOA CoV-2 EC50 GeoMean
HeLa-ACE2 cells [6] = experiment: Total cell count in the HeLa-ACE2 TOA (time of addition) assay; assay type: cell-based, human; conditions: for EC50: Homo sapiens, HeLa-ACE2, read-out: HeLa-ACE2 TOA cell count EC50 GeoMean
Calu-3 cells [7] = conditions: for Calu-3 uninfected cytotoxicity Sinf Average: human
HepG2 [8] = conditions: human
HEK293T [9] = conditions: human
HeLa-ACE2 cells [10] = experiment: cells; conditions: Homo sapiens; for EC50: HeLa-ACE2, read-out: HeLa-ACE2 cell count EC50 GeoMean; for Emax: HeLa-ACE2, 24 h, read-out: HeLa-ACE2 cell count Sinf Average
Calu-3 cells [11] = experiment: cells; conditions: Homo sapiens; for Emax: Calu-3, 48 h, read-out: Calu-3 cell count Sinf Average; for EC50: Calu-3, read-out: Calu-3 cell count EC50 GeoMean
in vitro = conditions: human, Calu-3 uninfected cytotoxicity CC50 GeoMean
SARS-CoV-2 [12] = assay type: cell-based; conditions: combination with remdesivir
HepG2 [13] = experiment: HepG2 72 h CellTiter-Glo cytotoxicity; conditions: 72 h
HEK293T [14] = experiment: HEK293T 72 h CellTiter-Glo cytotoxicity; conditions: 72 h
HeLa-ACE2 cells [15] = experiment: Total cell count in the HeLa-ACE2 TOA assay; assay type: cell-based; conditions: Homo sapiens; for EC50: HeLa-ACE2, read-out: HeLa-ACE2 TOA cell count EC50 GeoMean
Description: Supplement 41467_2021_23328_MOESM3_ESM.xlsx, sheet "Table S1" | column: HeLa-ACE2 TOA cell count

[16] = HepG2 72 h CellTiter-Glo cytotoxicity; conditions: human, HepG2 cells
[17] = HEK293T 72 h CellTiter-Glo cytotoxicity; conditions: human, HEK293T cells
[18] = Uninfected Calu-3 48 h Cell-Titer Glo cytotoxicity counter screen; conditions: human, uninfected Calu-3 cells, Calu-3 uninfected cytotoxicity CC50 GeoMean
Calu-3 cells [19] = experiment: as above; conditions: curve plateau at infinite concentration
[20] = Severe acute respiratory syndrome coronavirus 2, HeLa-ACE2, detail column
[21] = selectivity index, uninfected HeLa-ACE2 CC50 / SARS-CoV-2 EC50
[22] = human, uninfected HeLa-ACE2 cells, 24 h
[23] = Severe acute respiratory syndrome coronavirus 2, Calu-3, detail column
[24] = Severe acute respiratory syndrome coronavirus 2, Calu-3
[25] = selectivity index, uninfected Calu-3 CC50 / SARS-CoV-2 EC50
[26] = Severe acute respiratory syndrome coronavirus 2, HeLa-ACE2
[27] = curve plateau at infinite concentration

Row | Compound | Emax (SARS-CoV-2 [1]) [%] | EC50 (SARS-CoV-2 [1]; [20]) [µM] | HeLa-ACE2 SI (SARS-CoV-2 [1]; [21]) | CC50 at 24 h [2] [µM] | HeLa-ACE2 uninfected cytotoxicity Sinf Average (HeLa-ACE2 cells [3]; [22]) [%] | Emax (SARS-CoV-2 [4]) [%] | EC50 (SARS-CoV-2 [4]; [23]) [µM] | Emax (SARS-CoV-2 [5]) [%] | EC50 (HeLa-ACE2 cells [6]) [µM] | uninfected Calu-3 CC50 (Calu-3 cells [7]) | Calu-3 uninfected cytotoxicity Sinf Average (Calu-3 cells [7]; 48 h) [%] | HepG2 72-hour cytotoxicity Sinf Average (HepG2 [8]; 72 h) [%] | HEK293T 72-hour cytotoxicty Sinf Average (HEK293T [9]; 72 h) [%] | EC50 (HeLa-ACE2 cells [10]) [µM] | Emax (Calu-3 cells [11]) [%] | EC50 (Calu-3 cells [11]) [µM] | CC50 at 48 h (in vitro) [µM] | TOA:HeLa-ACE2 EC50 Ratio (SARS-CoV-2 [5]) | EC50 (SARS-CoV-2 [5]; [26]) [µM] | Emax (HeLa-ACE2 cells [10]) [%] | other results
1 | Cc1cccc(/C=N/Nc2cc(N3CCOCC3)n3nc(-c4ccncc4)cc3n2)c1 [APY0201] | 96 | 0.014 | > 2853.95 | > 39.4 | -100 | 97 | > 9.39 | 100 | > 9.59 | > 26.965 ×÷ 1.196 (n=6) μM | -100 | -100 | -96 | > 9.59 | 100 | > 9.98 | > 27 | – | – | – | EC50 (SARS-CoV-2 [5]; [20]): > 9.59 µM
2 | CCN(CC)CCCNc1ccnc2cc(Cl)ccc12 [AQ-13] | 101 | 0.8 | 32.34 | 25.9 | -100 | 100 | – | 100 | > 9.61 | > 29.255 ×÷ 1.046 (n=4) μM | -100 | -100 | -100 | > 9.6 | – | > 9.98 | > 29.3 | 12.002 | – | – | EC50 (SARS-CoV-2 [4]; [24]): > 9.98 µM; EC50 (SARS-CoV-2 [5]; [20]): > 9.61 µM; HeLa-ACE2 synergy score with remdesivi (SARS-CoV-2 [12]): -1.765 δ
3 | Nc1nc(Nc2ccc3c(c2)CC[C@@H](N2CCCC2)CC3)nn1-c1cc2c(nn1)-c1ccccc1CCC2 [BGB324] | 98 | 1.2 | 13.05 | 15.7 | -101 | 100 | 6.94 | 100 | > 9.59 | 19.024 ×÷ 1.18 (n=3) μM | -100 | -105 | -102 | > 9.15 | 100 | 6.27 | 19 | 7.782 | > 9.35 | 100 | Calu-3 SI (SARS-CoV-2 [4]; [25]): 2.74; HeLa-ACE2 synergy score with remdesivi (SARS-CoV-2 [12]): 7.223 δ
4 | COc1cc(-n2cnc3cc(-c4ccc(Cl)cc4)sc3c2=O)ccc1OCCN1CCCC1 [GW-803430] | 100 | – | – | 18.9 | – | 100 | – | 100 | > 9.59 | – | – | – | – | > 7.88 | 100 | > 9.98 | – | 5.656 | – | 100 | HeLa-ACE2 SI (SARS-CoV-2 [1]): 11.16; EC50 (SARS-CoV-2 [1]; [26]): 1.7 µM; HeLa-ACE2 uninfected cytotoxicity Sinf Average (HeLa-ACE2 cells [3]): -100%; Calu-3 SI (SARS-CoV-2 [4]): 0.88; EC50 (SARS-CoV-2 [4]; [24]): 6.57 µM; EC50 (SARS-CoV-2 [5]; [20]): > 9.59 µM; Calu-3 uninfected cytotoxicity Sinf Average (Calu-3 cells [7]): -116%; CC50 (in vitro): 5.81 µM; HepG2 72-hour cytotoxicity Sinf Average (HepG2 [13]): -100%; HEK293T 72-hour cytotoxicty Sinf Average (HEK293T [14]): -101%
5 | CCCCC1CCc2cc(O)cc3c(CCN4CCN(c5cc(C)ccn5)CC4)c(C)n1c23 (centres unmarked) [KC 11404] | 100 | 2.5 | > 8.39 | > 20.9 | -100 | 100 | 8.02 | 100 | > 9.59 | 12.778 ×÷ 1.123 (n=3) μM | -100 | -101 | -100 | > 9.59 | – | > 9.98 | 12.8 | 0.864 | 2.16 | 100 | Calu-3 SI (SARS-CoV-2 [4]; [25]): 1.59; HeLa-ACE2 synergy score with remdesivi (SARS-CoV-2 [12]): -2.817 δ; HeLa-ACE2 TOA cell count Sinf Average (HeLa-ACE2 cells [6]): 100%
6 | NC1(c2ccc(-c3nc4ccn5c(=O)[nH]nc5c4cc3-c3ccccc3)cc2)CCC1 [MK-2206] | – | 1.1 | – | > 22.8 | – | – | > 4.9 | – | – | – | – | – | – | > 9.59 | -100 | > 9.98 | – | – | > 9.39 | – | Emax (SARS-CoV-2 [1]; [27]): 99%; HeLa-ACE2 uninfected cytotoxicity Sinf Average (HeLa-ACE2 cells [3]; [27]): -100%; SI in Calu-3 (SARS-CoV-2 [4]): < 2; Emax (SARS-CoV-2 [4]; [27]): 82%; EC50 ratio between the standard 24 h and the TOA assay (SARS-CoV-2 [5]): > 8; Emax (SARS-CoV-2 [5]; [27]): 100%; HeLa-ACE2 synergy score with remdesivi [δ] (SARS-CoV-2 [12]; synergy score δ): 2.087; EC50 (HeLa-ACE2 cells [15]): > 9.59 µM; CC50 at 72 h [16]: 7.59 µM; HepG2 72-hour cytotoxicity Sinf Average (HepG2 [13]): -100%; CC50 at 72 h [17]: 3.88 µM; HEK293T 72-hour cytotoxicty Sinf Average (HEK293T [14]): -102%; CC50 at 48 h [18]: 8.7 µM; Calu-3 uninfected cytotoxicity Sinf Average (Calu-3 cells [19]): -100%
7 | CCCCN1CC[C@H](c2ccc(N(C)C)cc2)[C@@H](COc2ccc(C(F)(F)F)cc2)C1 [NNC 090026] | 94 | 2.75 | > 5.59 | > 15.4 | -100 | 100 | > 8.31 | 100 | > 9.61 | > 23.525 ×÷ 1.612 (n=4) μM | -100 | -100 | -100 | > 8.97 | – | > 9.98 | > 23.5 | 1.737 | 4.77 | 96 | Calu-3 SI (SARS-CoV-2 [4]; [25]): > 2.83
8 | COc1cc2c(Nc3ccc(Cl)c(Cl)c3F)ncnc2cc1OC[C@@H]1C[C@@H]2CN(C)C[C@@H]2C1 [Tesevatinib, XL647, Kadmon Corporation] | – | 2.44 | – | > 20.6 | – | – | 3.32 | – | – | – | – | – | – | > 8.16 | -100 | > 9.97 | – | – | > 7.61 | 100 | Emax (SARS-CoV-2 [1]; [27]): 101%; HeLa-ACE2 uninfected cytotoxicity Sinf Average (HeLa-ACE2 cells [3]; [27]): -100%; Emax (SARS-CoV-2 [4]; [27]): 100%; Emax (SARS-CoV-2 [5]; [27]): 100%; Emax (HeLa-ACE2 cells [15]; HeLa-ACE2, 10 h, curve plateau at infinite concentration, read-out: HeLa-ACE2 TOA cell count Sinf Average): -100%; EC50 (HeLa-ACE2 cells [15]): > 9.59 µM; CC50 at 72 h [16]: 3.15 µM; HepG2 72-hour cytotoxicity Sinf Average (HepG2 [13]): -103%; CC50 at 72 h [17]: 2.67 µM; HEK293T 72-hour cytotoxicty Sinf Average (HEK293T [14]): -102%; CC50 at 48 h [18]: 3.52 µM; Calu-3 uninfected cytotoxicity Sinf Average (Calu-3 cells [19]): -105%
9 | COc1cc(C[C@H]2c3cc(OC)c(OC)cc3CCN2C)c(Oc2cc3c(cc2OC)-c2c(OC)c(OC)cc4c2[C@H](C3)N(C)CC4)cc1OC [Thalicarpine] | 96 | – | – | > 26.6 | – | – | – | 100 | > 9.61 | – | – | – | – | > 9.6 | -100 | > 9.98 | – | 16.501 | – | – | HeLa-ACE2 SI (SARS-CoV-2 [1]): > 45.67; EC50 (SARS-CoV-2 [1]; [26]): 0.582 µM; HeLa-ACE2 uninfected cytotoxicity Sinf Average (HeLa-ACE2 cells [3]): -99%; EC50 (SARS-CoV-2 [4]; [24]): > 9.98 µM; EC50 (SARS-CoV-2 [5]; [20]): > 9.61 µM; Calu-3 uninfected cytotoxicity Sinf Average (Calu-3 cells [7]): -92%; HepG2 72-hour cytotoxicity Sinf Average (HepG2 [8]): -105%; HEK293T 72-hour cytotoxicty Sinf Average (HEK293T [9]): -105%; CC50 (in vitro): > 15.3 µM
